Article PMC9421655, “Novel Antagonist of the Type 2 Lysophosphatidic Acid Receptor (LPA2), UCM-14216, Ameliorates Spinal Cord Injury in Mice” (Journal of Medicinal Chemistry, 2022)
Where two headings read alike, the source gives them in different places.

Experiments:
LPA2 [1] = biological target: T1, LPA2 (Homo sapiens, UniProt Q9HBW0); experiment: Ca2+ mobilization assay, agonist activity at LPA2; format: cell-based; settings: 10 μM compound
T1 construct: expressed in transfected cells
Description: The agonist activity at LPA2 receptors was determined at 10 μM concentration for all final compounds as previously described.[18]
Figure S1. Representative snapshots showing the lack of significant agonist activity of selected compounds. (A) 1; (B) 13; (C) 54; and (D) Ki16425. (E) Graphs show the agonist activity induced […]
stably expressing LPA2 receptor were plated on collagen-coated black-wall clear-bottom 96-well plates (Corning) at a density of 50000 cells/well and cultured overnight. The culture medium was then replaced with Fluo-4 NW dye loading solution containing 2.5 µM of probenecid and incubated […]
for 30 minutes at 37 °C followed by an additional 30 minutes at rt. Fluorescence changes were registered in a FluoStar Optima instrument (BMG Labtech) at 525 nm using an excitation wavelength of 494 nm. Each well was monitored for 240 s. 20 µL of the test compound from a 6x stock solution in assay buffer were added after 120 s of starting the measurement. Ca2+ transient increase was quantified by calculating the difference between maximum and baseline values for each […]
Graphs shown are representative of two to three independent experiments.

LPA3 [2] = biological target: T2, LPA3 (Homo sapiens, UniProt Q9UBY5); experiment: cell-based; settings: for Emax (%) LPA3: maximum blockade of activation induced by 10 μM LPA (18:1) at 10 μM compound, N.E. = no effect at 10 μM
T2 sequence (Q9UBY5 1-353): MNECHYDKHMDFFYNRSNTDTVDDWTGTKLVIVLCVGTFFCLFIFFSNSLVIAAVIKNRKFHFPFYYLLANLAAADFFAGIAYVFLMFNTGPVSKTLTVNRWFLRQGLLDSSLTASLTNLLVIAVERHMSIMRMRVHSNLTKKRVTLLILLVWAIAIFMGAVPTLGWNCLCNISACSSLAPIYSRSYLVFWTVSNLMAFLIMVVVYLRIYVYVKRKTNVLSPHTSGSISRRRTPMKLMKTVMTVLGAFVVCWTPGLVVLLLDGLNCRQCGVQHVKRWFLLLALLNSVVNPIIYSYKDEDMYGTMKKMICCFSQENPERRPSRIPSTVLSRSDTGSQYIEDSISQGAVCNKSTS
Description: (§1) Cells stably expressing the corresponding LPA1–3 receptor were grown as described previously.[18] Changes in intracellular calcium levels were measured by using the fluorescent calcium sensitive dye Fluo-4 NW (Invitrogen). RH7777 cells or B103 cells were plated on poly-D-lysine or collagen coated, respectively, black-wall clear-bottom 96-well plates (Corning) at a density of 50 000 cells/well and cultured overnight. The culture medium was then replaced with 100 μL of Fluo-4 NW dye loading solution containing 2.5 μM of probenecid and incubated for 30 min at 37 °C followed by an additional 30 min at rt. […] Fluorescence changes were registered in a FluoStar Optima instrument (BMG Labtech) at 525 nm using an excitation wavelength of 494 nm. […] The data presented are from two to four independent experiments carried out in triplicate or quadruplicate. Dose–response curves were generated and IC50 values calculated by nonlinear regression analysis using Prism software version 5 (GraphPad Software Inc., San Diego, CA, USA).

LPA1 [3] = biological target: T3, LPA1 (Homo sapiens, UniProt Q92633); experiment: cell-based; parameters: Emax: dose or concentration left out as unconfirmed; settings: for Emax (%) LPA1: maximum blockade of activation induced by 10 μM LPA (18:1) at 10 μM compound, N.E. = no effect at 10 μM
Description: as §1

LPA2 [4] = biological target: T1, LPA2; experiment: Ca2+ mobilization assay, antagonist activity at LPA2; format: cell-based; parameters: Emax: dose or concentration left out as unconfirmed; settings: for IC50: antagonism of 10 μM LPA, mean ± s.e.m.
Description: as §1
Figure S2. Dose response curves for compounds 13, 44, 53, 54, and 55. B103 cells stably expressing LPA2 receptor were incubated with different concentrations of the compound under study and […]
Curves were generated with PRISM software version 5 (GraphPad Software Inc, San Diego, CA, USA) using nonlinear regression analysis. Each data point corresponds to the mean±SEM of two to four independent experiments carried out in triplicate or quadruplicate.

LPA1 [5] = biological target: T3, LPA1; parameters: expressed in transfected cells; settings: cited from earlier work
LPA3 [6] = biological target: T2, LPA3; parameters: expressed in transfected cells; settings: cited from earlier work
[7] = Metabolic stability in human liver microsomes; format: in vitro ADME; settings: male, liver microsomes (pooled), 1 mg/mL protein, NADPH, 37 °C, read-out: stability (t1/2, min) HLMs
Description: (§2) Reactions were initiated by the addition of a suspension of mouse liver microsomes (MLMs) (male CD-1 mice pooled, Sigma-Aldrich) or human liver microsomes (HLMs) (male human pooled, Sigma-Aldrich), respectively, at a final protein concentration of 1 mg/mL. […] Aliquots of 100 μL were quenched at time zero and at seven points ranging to 2 h (MLM) or 4 h (HLM) by pouring into 100 μL of ice-cold acetonitrile. […] The relative disappearance of the compound under study over the course of the incubation was monitored by HPLC-MS using SIM mode. Concentrations were quantified by measuring the area under the peak ([M + H]^+) normalized with an internal standard and converted to the percentage of compound remaining, using the time zero peak area value as 100%. The natural logarithm of the remaining percentage versus time data for each compound was fit to a linear regression, and the slope was used to calculate the degradation half-life (t1/2).

[8] = Parallel artificial membrane permeability assay (PAMPA); format: in vitro ADME; settings: PBS pH 7.4, 5 h, rt
Description: These studies were carried out as previously described with minor modifications.[41],[42] The assessment of the membrane permeability of synthesized compounds and propranolol and metoprolol as reference compounds was performed in a commercially available 96-well Corning Gentest precoated PAMPA plate system (Cultek S.L.U., Spain). Prior to use, the precoated PAMPA plate system was warmed to rt for 30 min and 300 μL of 200 μM solution of tested compound in 2% DMSO in PBS (pH 7.4) were added into wells in the receiver (donor) plate. Then, 200 μL of PBS were added into wells in the filter (acceptor) plate. The filter plate was placed on the receiver plate by slowly lowering the precoated PAMPA plate until it sits on the receiver plate. The assembly was incubated at rt for 5 h, and then buffer samples were collected carefully from each plate. The final concentrations of compound in both donor and acceptor wells were analyzed by HPLC-MS and quantification was estimated by using the peak area integration normalized with an internal standard. Permeability value of the compounds was calculated using the following formula: P (cm/s) = {−ln[1 – CA(t)/Ceq]}/[A(1/VD + 1/VA)t], where A = filter area (0.3 cm^2), VD = donor well volume (0.3 mL), VA = acceptor well volume (0.2 mL), t = incubation time (s), CA(t) = compound concentration (μM) in the acceptor well at time t, CD(t) = compound concentration (μM) in donor well at time t, and Ceq = [CD(t)VD + CA(t)VA]/(VD + VA). Assays were performed in duplicate, and the compound was tested in two different plates on different days.

[9] = Metabolic stability in mouse liver microsomes; format: in vitro ADME; settings: male, CD-1, mouse, liver microsomes (pooled), 1 mg/mL protein, NADPH, 37 °C, read-out: stability (t1/2, min) MLMs
Description: as §2

LPA2 [10] = biological target: T1, LPA2; settings: cited from earlier work

T1 sequence (Q9HBW0 whole entry, species assumed): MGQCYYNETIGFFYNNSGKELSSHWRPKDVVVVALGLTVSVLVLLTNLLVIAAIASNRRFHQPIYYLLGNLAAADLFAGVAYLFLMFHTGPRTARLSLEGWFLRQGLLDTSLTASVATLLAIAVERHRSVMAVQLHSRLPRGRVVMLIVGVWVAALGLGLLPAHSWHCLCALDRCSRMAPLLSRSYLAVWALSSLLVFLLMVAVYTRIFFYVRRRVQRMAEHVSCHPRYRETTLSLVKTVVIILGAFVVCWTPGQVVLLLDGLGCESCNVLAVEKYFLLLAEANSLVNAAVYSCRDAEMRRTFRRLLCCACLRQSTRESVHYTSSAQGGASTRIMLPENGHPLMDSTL
T3 sequence (Q92633 whole entry, species assumed): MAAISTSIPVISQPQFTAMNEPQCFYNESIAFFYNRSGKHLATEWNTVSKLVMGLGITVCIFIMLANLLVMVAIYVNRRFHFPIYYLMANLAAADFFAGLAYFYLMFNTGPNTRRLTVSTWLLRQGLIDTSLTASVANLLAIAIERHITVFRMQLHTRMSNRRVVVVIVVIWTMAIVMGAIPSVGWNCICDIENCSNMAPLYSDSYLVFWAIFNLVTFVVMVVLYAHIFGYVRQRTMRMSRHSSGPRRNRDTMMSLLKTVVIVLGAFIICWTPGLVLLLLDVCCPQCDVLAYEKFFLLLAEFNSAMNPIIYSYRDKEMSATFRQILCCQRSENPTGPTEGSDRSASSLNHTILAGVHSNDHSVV

SMILES	agonist activity at LPA2 receptor (LPA2 [1])	Emax (%) LPA3 (LPA3 [2])	Emax (%) LPA1 (LPA1 [3])	Emax at 10 µM (LPA2 [4]) [%]	melting point	IC50 (LPA2 [4]) [µM]	IC50 (LPA1 [5]) [µM]	IC50 (LPA3 [6]) [µM]	also measured
Cc1[nH]nc(-c2ccc(OCC(=O)O)cc2O)c1Oc1ccccc1Cl [Compound 1]	lack and absence of significant agonist activity	N.E.	N.E.^c	48 ± 9	–	–	–	–	–
Cc1[nH]nc(-c2ccc(OCC(=O)O)cc2O)c1Oc1ccc(Cl)c(Cl)c1 [Compound 12, {4-[4-(3,4-Dichlorophenoxy)-5-methyl-1H-pyrazol-3-yl]-3-hydroxyphenoxy}acetic Acid]	–	N.E.	N.E.	58 ± 3	> 240 °C (dec.)	–	–	–	–
Cc1[nH]nc(-c2ccc(OCC(=O)O)cc2O)c1Oc1ccc(Cl)cc1 [Compound 11, {4-[4-(4-Chlorophenoxy)-5-methyl-1H-pyrazol-3-yl]-3-hydroxyphenoxy}acetic Acid]	–	N.E.	N.E.	60 ± 9	121 to 123 °C	–	–	–	–
Cc1[nH]nc(-c2ccc(OCC(=O)O)cc2O)c1Oc1ccc(F)cc1F [Compound 53, {4-[4-(2,4-Difluorophenoxy)-5-methyl-1H-pyrazol-3-yl]-3-hydroxyphenoxy}acetic Acid]	–	N.E.	N.E.	–	> 210 °C (dec.)	5.1	–	–	Emax (LPA2 [4]): 65 ± 11%
Cc1csc2c(N[C@@H](C)CN3CCN(S(=O)(=O)c4ccc(Cl)c(Cl)c4)CC3)ncnc12 [Compound C35]	–	–	–	–	–	–	> 50	> 50	–
Cc1[nH]nc(-c2ccc(OCC(=O)O)cc2O)c1Oc1ccc(Cl)cc1Cl [Compound 13, {4-[4-(2,4-Dichlorophenoxy)-5-methyl-1H-pyrazol-3-yl]-3-hydroxyphenoxy}acetic Acid]	lack	N.E.	N.E. and N.E. ^c	84 ± 3	> 196 °C (dec.)	5.5	–	–	half-life at 5 μM [7]: ~60 min; P (cm/s), permeability value ([8]; 200 μM): 0.1 × 10^–6 cm/s; Papp at 5 h, 200 μM ([8]; pH 7.4, PAMPA, read-out: P (cm/s), permeability value): 0.11 ×10⁻⁶ cm/s; half-life at 1 μM [9]: ~16 min
COC(=O)COc1ccc(-c2n[nH]c(C)c2Oc2ccc(Cl)cc2Cl)c(O)c1 [Compound 44, Methyl {4-[4-(2,4-dichlorophenoxy)-5-methyl-1H-pyrazol-3-yl]-3-hydroxyphenoxy} Acetate]	–	N.E.	N.E.	74 ± 7	> 210 °C (dec.)	11.6	–	–	–
Cc1noc(-c2ccc(CSCCC(=O)O)cc2)c1NC(=O)OC(C)c1ccccc1Cl (centres unmarked) [Ki16425, reference compound]	lack	–	–	92 ± 3	–	1.2	0.34	0.93	Emax (LPA3 [2]; read-out: Emax (%) LPA3): 99 ± 3%; IC50 (LPA3 [2]; read-out: IC50 (μM) LPA3, antagonism of 10 μM LPA, mean ± s.e.m.): 1.6 µM; IC50 (LPA2 [10]): 6.5 µM; Emax (LPA1 [3]; read-out: Emax (%) LPA1): 97 ± 4%; IC50 (LPA1 [3]; read-out: IC50 (μM) LPA1, antagonism of 10 μM LPA, mean ± s.e.m.): 0.8 µM
Cc1[nH]nc(-c2ccc(OCc3nnn[nH]3)cc2O)c1Oc1ccc(F)cc1F [Compound 55]	–	N.E.	N.E.	–	> 210 °C (dec.)	–	–	–	Emax (LPA2 [4]): 77 ± 5%
O=C(O)/C=C/C(=O)Nc1ccc(Oc2cccc(Oc3ccc(NC(=O)/C=C/C(=O)O)cc3)c2)cc1 [Compound H2L5186303]	–	–	–	–	–	–	1.23	27.3	–
